In this assay the target is PKBα (Homo sapiens, UniProt P31749). The assay is described as follows: PKB kinase assay (P33-labeled ATP, peptide substrate, filter plate). The class given is biochemical. The note with it: PKBα enzyme (full length or kinase domain with pleckstrin domain deleted). From the text:
The kinase assay for evaluating PKB activity comprises active PKB enzymes, a PKB specific substrate, and P^33-labeled ATP. […] The phosphorylated substrate was captured by a phosphocellulose membrane filter plate (MLLIPORE) and measured by a Wallac Microbeta liquid scintillation counter (Perkin Elmer).
Chain of PKBα (P31749 118-480 limits assumed): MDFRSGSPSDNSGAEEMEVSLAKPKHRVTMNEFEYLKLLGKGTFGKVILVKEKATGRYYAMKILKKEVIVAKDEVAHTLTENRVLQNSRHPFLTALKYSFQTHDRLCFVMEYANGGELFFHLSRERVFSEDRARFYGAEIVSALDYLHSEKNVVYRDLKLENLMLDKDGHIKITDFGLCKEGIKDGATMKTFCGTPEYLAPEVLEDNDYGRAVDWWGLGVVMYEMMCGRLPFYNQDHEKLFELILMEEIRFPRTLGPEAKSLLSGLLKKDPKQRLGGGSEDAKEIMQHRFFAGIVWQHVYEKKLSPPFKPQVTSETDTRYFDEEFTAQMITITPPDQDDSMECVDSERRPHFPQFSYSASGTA
By IC50 is commonly meant the concentration needed to halve the response being measured. A lower IC50 goes with greater potency. Compound `N[C@H](CNc1ncc(-c2ccc3[nH]c(=O)oc3c2)s1)Cc1ccc(Cl)s1` [Example 213, 6-(2-((S)-2-amino-3-(5-chlorothiophen-2-yl)propylamino)thiazol-5-yl)benzo[d]oxazol-2(3H)-one] gave a 50% inhibitory concentration (IC50) of 50 to 1000 nM.
For `N[C@H](CNc1ncc(-c2cc3c(cc2F)NC(=O)C3)s1)Cc1ccc(C(F)(F)F)cc1` [Example 214, 5-(2-((S)-2-amino-3-(4-(trifluoromethyl)phenyl)propylamino)thiazol-5-yl)-6-fluoroindolin-2-one], the IC50 was less than 50 nM.
Regarding `N[C@H](CNc1ncc(-c2cc3c(cc2F)NC(=O)C3)s1)Cc1ccc(C(F)(F)F)nc1` [Example 215, 5-(2-((S)-2-amino-3-(6-(trifluoromethyl)pyridin-3-yl)propylamino)thiazol-5-yl)-6-fluoroindolin-2-one], the IC50 lay in the range of 50 to 1000 nM.
As for `NC(CNc1ncc(-c2ccc3[nH]c(=O)oc3c2)s1)Cc1ccc(O)c(F)c1` (stereo not drawn) [Example 216, 6-(2-(2-Amino-3-(3-fluoro-4-hydroxyphenyl)propylamino)thiazol-5-yl)benzo[d]oxazol-2(3H)-one], the figure is 50 to 1000 nM.
`NC(CNc1ncc(-c2ccc3c(c2)CC(=O)N3)s1)Cc1ccc(O)c(F)c1` (stereo not drawn) [Example 217, 5-(2-(2-Amino-3-(3-fluoro-4-hydroxyphenyl)propylamino)thiazol-5-yl)indolin-2-one] had a half-inhibitory concentration (IC50) of 50 to 1000 nM.
To `NC(CNc1ncc(-c2ccc3cnccc3c2)s1)Cc1ccc(O)c(F)c1` (stereo not drawn) [Example 218, 4-(2-Amino-3-(5-(isoquinolin-6-yl)thiazol-2-ylamino)propyl)-2-fluorophenol] belongs less than 50 nM; to `N[C@H](CNc1ncc(-c2cc3oc(=O)[nH]c3cc2F)s1)Cc1ccc(C(F)(F)F)nc1` [Example 219, 6-(2-((S)-2-amino-3-(6-(trifluoromethyl)pyridin-3-yl)propylamino)thiazol-5-yl)-5-fluorobenzo[d]oxazol-2(3H)-one], 50 to 1000 nM.
`N[C@H](CNc1ncc(-c2cc(F)c3c(c2)CC(=O)N3)s1)Cc1ccc(C(F)(F)F)cc1` [Example 220, 5-(2-((S)-2-amino-3-(4-(trifluoromethyl)phenyl)propylamino)thiazol-5-yl)-7-fluoroindolin-2-one] came in with an IC50 of less than 50 nM.
To `N[C@H](CNc1ncc(-c2cc(F)c3c(c2)CC(=O)N3)s1)Cc1ccc(C(F)(F)F)nc1` [Example 221, 5-(2-((S)-2-amino-3-(6-(trifluoromethyl)pyridin-3-yl)propylamino)thiazol-5-yl)-7-fluoroindolin-2-one] belongs less than 50 nM; to `C[C@@H](c1ccc(C(F)(F)F)cc1)[C@H](N)CNc1ncc(-c2cc(F)c3c(c2)CC(=O)N3)s1` [Example 222, 5-(2-((2S,3S)-2-amino-3-(4-(trifluoromethyl)phenyl)butylamino)thiazol-5-yl)-7-fluoroindolin-2-one], 50 to 1000 nM.
To `N[C@H](CNc1ncc(-c2ccc3cnccc3c2)s1)Cc1ccc(NC(=O)OCc2ccccc2)cc1` [Example 223, Benzyl 4-((S)-2-amino-3-(5-(isoquinolin-6-yl)thiazol-2-ylamino)propyl)phenylcarbamate] belongs 1000 to 10000 nM; to `N[C@H](CNc1ncc(-c2ccc3c(c2F)CC(=O)N3)s1)Cc1ccc(C(F)(F)F)cc1` [Example 224, 5-(2-((S)-2-amino-3-(4-(trifluoromethyl)phenyl)propylamino)thiazol-5-yl)-4-fluoroindolin-2-one], less than 50 nM; to `C[C@@H](c1ccc(C(F)(F)F)cc1)[C@H](N)CNc1ncc(-c2ccc3c(c2F)CC(=O)N3)s1` [Example 225, 5-(2-((2S,3S)-2-amino-3-(4-(trifluoromethyl)phenyl)butylamino)thiazol-5-yl)-4-fluoroindolin-2-one], less than 50 nM.
For `N[C@H](CNc1ncc(-c2cnc3c(c2)CC(=O)N3)s1)Cc1ccc(C(F)(F)F)cc1` [Example 226, 5-(2-((S)-2-amino-3-(4-(trifluoromethyl)phenyl)propylamino)thiazol-5-yl)-1H-pyrrolo[2,3-b]pyridin-2(3H)-one], the IC50 was less than 50 nM.
To `N[C@H](CNc1ncc(-c2cnc3c(c2)CC(=O)N3)s1)Cc1ccc(C(F)(F)F)nc1` [Example 227, 5-(2-((S)-2-amino-3-(6-(trifluoromethyl)pyridin-3-yl)propylamino)thiazol-5-yl)-1H-pyrrolo[2,3-b]pyridin-2(3H)-one] belongs 50 to 1000 nM.
The compound `C[C@@H](c1ccc(C(F)(F)F)cc1)[C@H](N)CNc1ncc(-c2cnc3c(c2)CC(=O)N3)s1` [Example 228, 5-(2-((2S,3S)-2-amino-3-(4-(trifluoromethyl)phenyl)butylamino)thiazol-5-yl)-1H-pyrrolo[2,3-b]pyridin-2(3H)-one] registered an IC50 of 50 to 1000 nM.
To `C[C@@H](Nc1ncc(-c2ccc3c(c2)CC(=O)N3)s1)[C@@H](N)Cc1ccc(C(F)(F)F)cc1` [Example 229, 5-(2-((2R,3S)-3-amino-4-(4-(trifluoromethyl)phenyl)butan-2-ylamino)thiazol-5-yl)indolin-2-one] belongs less than 50 nM.
In turn, `C[C@@H](Nc1ncc(-c2ccc3cnccc3c2)s1)[C@@H](N)Cc1ccc(C(F)(F)F)cc1` [Example 230, N-((2R,3S)-3-amino-4-(4-(trifluoromethyl)phenyl)butan-2-yl)-5-(isoquinolin-6-yl)thiazol-2-amine] had an IC50 of less than 50 nM.
Regarding `C[C@@H](Nc1ncc(-c2ccc3[nH]c(=O)oc3c2)s1)[C@@H](N)Cc1ccc(C(F)(F)F)cc1` [Example 231, 6-(2-((2R,3S)-3-amino-4-(4-(trifluoromethyl)phenyl)butan-2-ylamino)thiazol-5-yl)benzo[d]oxazol-2(3H)-one], the half-maximal inhibitory concentration (IC50) was 50 to 1000 nM.
For the compound `C[C@@H](Nc1ncc(-c2ccc3[nH]c(=O)n(C)c3c2)s1)[C@@H](N)Cc1ccc(C(F)(F)F)cc1` [Example 232, 6-(2-((2R,3S)-3-amino-4-(4-(trifluoromethyl)phenyl)butan-2-ylamino)thiazol-5-yl)-1-methyl-1H-benzo[d]imidazol-2(3H)-one], the 50% inhibitory concentration (IC50) was 50 to 1000 nM.
In turn, `C[C@@H](c1ccc(C(F)(F)F)nc1)[C@H](N)CNc1ncc(-c2ccc3c(c2)CC(=O)N3)s1` [Example 233, 5-(2-((2S,3S)-2-amino-3-(6-(trifluoromethyl)pyridin-3-yl)butylamino)thiazol-5-yl)indolin-2-one] displayed an IC50 of less than 50 nM.
`C[C@H](Nc1ncc(-c2ccc3c(c2)CC(=O)N3)s1)[C@@H](N)Cc1ccc(C(F)(F)F)cc1` [Example 234, 5-(2-((2S,3S)-3-amino-4-(4-(trifluoromethyl)phenyl)butan-2-ylamino)thiazol-5-yl)indolin-2-one] gave an IC50 of 1000 to 10000 nM.
As for `C[C@H](Nc1ncc(-c2ccc3cnccc3c2)s1)[C@@H](N)Cc1ccc(C(F)(F)F)cc1` [Example 235, N-((2S,3S)-3-amino-4-(4-(trifluoromethyl)phenyl)butan-2-yl)-5-(isoquinolin-6-yl)thiazol-2-amine], the IC50 was 50 to 1000 nM.
In turn, `C[C@H](Nc1ncc(-c2ccc3[nH]c(=O)oc3c2)s1)[C@@H](N)Cc1ccc(C(F)(F)F)cc1` [Example 236, 6-(2-((2S,3S)-3-amino-4-(4-(trifluoromethyl)phenyl)butan-2-ylamino)thiazol-5-yl)benzo[d]oxazol-2(3H)-one] showed an IC50 of 1000 to 10000 nM.
To `C[C@H](Nc1ncc(-c2ccc3[nH]c(=O)n(C)c3c2)s1)[C@@H](N)Cc1ccc(C(F)(F)F)cc1` [Example 237, 6-(2-((2S,3S)-3-amino-4-(4-(trifluoromethyl)phenyl)butan-2-ylamino)thiazol-5-yl)-1-methyl-1H-benzo[d]imidazol-2(3H)-one] belongs 1000 to 10000 nM.
Compound `COc1cc(C[C@H](N)CNc2ncc(-c3ccc4c(c3)CNC4=O)s2)cnc1C(F)(F)F` [Example 238, 5-(2-((S)-2-amino-3-(5-methoxy-6-(trifluoromethyl)pyridin-3-yl)propylamino)thiazol-5-yl)isoindolin-1-one] gave an IC50 of 50 to 1000 nM.
As for `N[C@H](CNc1ncc(-c2ccc3c(c2)CNC3=O)s1)Cc1ccc(Cl)s1` [Example 239, 3,5-(2-((S)-2-amino-3-(5-chlorothiophen-2-yl)propylamino)thiazol-5-yl)isoindolin-1-one], the figure is 1000 to 10000 nM; as for `N[C@H](CNc1ncc(-c2ccc3c(c2)CNC3=O)s1)Cc1ccc(C(F)(F)F)cc1` [Example 240, 5-(2-((S)-2-amino-3-(4-(trifluoromethyl)phenyl)propylamino)thiazol-5-yl)isoindolin-1-one], 50 to 1000 nM.
As for `COC[C@@H](c1ccc(C(F)(F)F)cc1)[C@H](N)CNc1ncc(-c2ccc3c(c2)CC(=O)N3)s1` [Example 241, 5-(2-((2S,3S)-2-amino-4-methoxy-3-(4-(trifluoromethyl)phenyl)butylamino)thiazol-5-yl)indolin-2-one], the figure is less than 50 nM.
In the case of `CC(C)(C)C(=O)OC[C@@H](c1ccc(C(F)(F)F)cc1)[C@H](N)CNc1ncc(-c2ccc3c(c2)CC(=O)N3)s1` [Example 242, (2S,3S)-3-amino-4-(5-(2-oxoindolin-5-yl)thiazol-2-ylamino)-2-(4-(trifluoromethyl)phenyl)butyl pivalate], the IC50 was in the range of 50 to 1000 nM.
To `CC(O)[C@@H](c1ccc(C(F)(F)F)cc1)[C@H](N)CNc1ncc(-c2ccc3c(c2)CC(=O)N3)s1` (stereo partly drawn) [Example 243, 5-(2-((2S,3S)-2-amino-4-hydroxy-3-(4-(trifluoromethyl)phenyl)pentylamino)thiazol-5-yl)indolin-2-one] belongs less than 50 nM.
Turning to `COCOC(c1ccc(C(F)(F)F)cc1)C(N)CNc1ncc(-c2ccc3c(c2)CC(=O)N3)s1` (stereo not drawn) [Example 244], the IC50 is 1000 to 10000 nM.
With `CC(=O)OC[C@@H](c1ccc(C(F)(F)F)cc1)[C@H](N)CNc1ncc(-c2ccc3c(c2)CC(=O)N3)s1` [Example 248, (2S,3S)-3-amino-4-(5-(2-oxoindolin-5-yl)thiazol-2-ylamino)-2-(4-(trifluoromethyl)phenyl)butyl acetate], the IC50 fell in the range of 50 to 1000 nM.
